Laboratory results reported in patent publication US20180353403A1, “SKIN-WHITENING COSMETIC COMPOSITION CONTAINING ROSEMARY-DERIVED VERBENONE AS ACTIVE INGREDIENT” (Jeju National University Industry-Academic Cooperation …, priority 2014, published 2018).

Legend:
[1] = test system: mushroom tyrosinase; assay: Mushroom tyrosinase inhibition assay; assay type: biochemical
Description: 60 μl of a 1 M phosphate buffer (pH 6.8), 10 μl of a sample solution, and 20 μl of 500 U/ml mushroom tyrosinase were sequentially added, and then incubated at room temperature for 5 minutes. After incubation, 60 μl of an aqueous solution containing 1 mM L-tyrosine was added to initiate a reaction. The reaction was performed at 37° C. for 30 minutes, and absorbance was measured at 490 nm. Mushroom tyrosinase inhibition activity was calculated by the following equation.
Mushroom tyrosinase inhibition activity (%)=(B−A)/A×100
(§1) A: OD490 value of treated group
B: OD490 value of blank control

[2] = test system: B 16F10 melanoma cells; assay: Measurement of melanin content in B16F10 cells; assay type: cell-based, mouse
Description: B 16F10 melanoma cells, obtained from mice, were used as melanin-producing cells. The cultured B 16F10 cells were treated with […] α-melanocyte-stimulating hormone (α-MSH) (a control group). After 1 day, 2.5, 1.25, 0.625 mM verbenone and 2 mM arbutin (a positive control group) were added to the cells, the cells were cultured for 1 day and 2 days, respectively (experimental groups). The cultured cells were washed twice with PBS and harvested by centrifugation at 1500 rpm for 5 minutes. 300 ill of 1 N NaOH containing 10% DMSO was added to the cell pellet and then incubated at 80° C. for 1 hour to dissolve melanin. Melanin content was calculated by the following equation.
Melanin content (%)=A/B×100
as §1
B: OD490 value of non-treated group

[3] = test system: TRP-1, TRP-2, tyrosinase and MITF; assay: Western blot of melanogenesis-related proteins in B16F10 cells; assay type: cell-based, mouse
Description: After 24 hours, the cells were treated with verbenone at concentrations of 0.625, 1.25, and 2.5 mM, respectively, followed by culturing for 72 hours. The cultured cells were harvested and washed three times with PBS. Then, to lyse the cells, 500 μl of a lysis buffer was added to the cells and the cells were sonicated, followed by incubation for 30 minutes. After cell lysis, centrifugation was performed at 12,000 rpm and 4° C. for 30 minutes to obtain a supernatant. Protein concentration was quantified using bovine serum albumin (BSA) as a standard. Equivalent amounts of the denatured lysates were loaded onto a 12% sodium dodecyl sulfate-polyacrylamide gel, and electrophoresis was performed at 45 mA to separate proteins. After sodium dodecyl sulfate-polyacrylamide gel electrophoresis (SDS-PAGE), the separated proteins present in the gel were transferred onto a membrane at 150 V for 80 minutes. Then, blocking of the membrane was performed for overnight using TTBS (TBS+0.1% Tween 20) solution containing 5% skim milk. Primary antibodies against melanogenesis-related proteins and actin were prepared in a ratio of 1:1,000, and a primary antibody reaction was performed at room temperature for 3 hours. Anti-rabbit IgG and anti-mouse IgG were used as secondary antibodies and diluted 1:5,000. A secondary antibody reaction was performed at room temperature for 1 hour. […]

[4] = test system: tyrosinase in B16F10 cells; assay: Tyrosinase inhibition activity in B16F10 cells; assay type: cell-based, mouse; details: α-MSH for one day, then 0.625, 1.25 and 2.5 mM, measured after 24 and 48 hours (FIG. 3)
Description: Cultured cells were harvested by adding […]. After harvesting, 500 μl of a cell lysis buffer (10 mM sodium phosphate buffer containing 1% Triton X-100 and 0.1 mM PMSF) was added to the harvested cells. To lyse the cells, sonication was performed on the cells and subsequently the cells were incubated on ice for 30 minutes. The lysed cells were centrifuged at 13000 rpm for 30 minutes, and the obtained cell lysate was used to measure tyrosinase activity.
To evaluate the inhibitory efficacy of verbenone against tyrosinase in B16F10 mouse melanoma cells, B16F10 cells were treated with α-MSH for one day to increase tyrosinase. Then, the cells were treated with verbenone at concentrations of 0.625, 1.25 and 2.5 mM, respectively, and tyrosinase activity was measured after 24 and 48 hours, respectively.

## O=c1cc(CO)occ1O [kojic acid, reference compound]
[1]; kojic acid control at 200, 400 or 800 μM (FIG. 2)
  mushroom tyrosinase inhibition activity: observed in a concentration-dependent manner

## CC1=CC(=O)[C@@H]2C[C@H]1C2(C)C [verbenone]
[2]; 20 nM α-MSH + 0.625, 1.25, 2.5 mM verbenone (FIG. 5)
  color of the cell pellet: weakened by verbenone in a concentration-dependent manner
[2]; screen of six rosemary components, various concentrations, 72 hours, 490 nm, compared to arbutin-treated cells (FIG. 1)
  change in melanin content in B 16F10 cells: most significantly decreased
[2]; α-MSH 24 hours, then 0.625, 1.25 and 2.5 mM, measured after 24 and 48 hours (FIG. 4)
  melanin content in B16F10 cells: reduced by verbenone in B16F10 cells in a concentration-dependent manner
[3]; 20 nM α-MSH for 24 hours, then 0.625, 1.25, 2.5 mM, western blotting (FIG. 6A)
  expression levels of the melanogenesis-related proteins: reduced in the verbenone-treated group in a concentration-dependent manner
[3]; without α-MSH, 0.625, 1.25, 2.5 mM, 72 hours, western blotting (FIG. 6B)
  expression levels of melanogenesis-related proteins TRP-1, TRP-2, tyrosinase and MITF: decreased by verbenone in a concentration-dependent manner
[1]; 2.5 and 5 mM verbenone (FIG. 2)
  mushroom tyrosinase inhibition activity: no inhibitory effect was observed
[4]
  tyrosinase activity in B16F10 cells: inhibited tyrosinase in B16F10 cells
